The values below come from patent US20070049593A1 (priority 2004, published 2007).

Structures can show the parent of a compound that is named as a salt.

The experiment concerns the target T1, HCV polymerase (Hepatitis C virus genotype 1b, UniProt P26663).
T1 construct: a region encoding NS5B (J Virol 1991 March, 65(3), 1105-13, 544 amino acids after deletion of 47 amino acids on the C-terminal); 6xHis (C); made in house; host or cells: Escherichia coli
Description: biochemical. On the set-up: species or system HCV BK strain. An outline of the steps: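 His-tagged NS5B (BK strain, 47-aa C-terminal deletion, E. coli-expressed) at 0.5 μg/ml copied 5 μg/ml run-off RNA bearing the HCV 3′ UTR with 2 μM UTP plus [3H]UTP, 50 μM ATP/GTP, in pH 7.5 Tris with 5 mM MgCl2, 25 °C, 90 min. TCA-precipitated RNA was counted and IC50 calculated.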

T1 sequence (P26663 2420-2963): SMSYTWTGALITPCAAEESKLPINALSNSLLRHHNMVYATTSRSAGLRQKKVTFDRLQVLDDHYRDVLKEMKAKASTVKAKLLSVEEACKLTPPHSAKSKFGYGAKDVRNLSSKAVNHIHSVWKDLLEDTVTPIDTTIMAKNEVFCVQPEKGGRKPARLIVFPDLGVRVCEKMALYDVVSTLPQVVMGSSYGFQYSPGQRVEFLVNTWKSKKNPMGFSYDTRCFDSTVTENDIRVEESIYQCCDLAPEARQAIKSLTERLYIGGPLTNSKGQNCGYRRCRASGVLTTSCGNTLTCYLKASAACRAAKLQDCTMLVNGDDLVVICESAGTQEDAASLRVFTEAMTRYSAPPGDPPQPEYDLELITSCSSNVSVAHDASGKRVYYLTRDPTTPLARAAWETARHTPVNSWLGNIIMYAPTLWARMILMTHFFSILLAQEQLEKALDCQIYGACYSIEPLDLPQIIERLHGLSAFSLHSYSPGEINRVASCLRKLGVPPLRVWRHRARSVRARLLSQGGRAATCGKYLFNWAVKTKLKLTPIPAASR

Regarding `COC(=O)N1CCC[C@H]1COc1ccc2c(c1)OCCn1c-2c(C2CCCCC2)c2ccc(C(=O)O)cc21` [Example 2-37, 12-cyclohexyl-3-((S)-1-methoxycarbonylpyrrolidin-2-ylmethoxy)-6,7-dihydro-5-oxa-7a-azadibenzo[a,e]azulene-9-carboxylic acid], the IC50 (commonly the concentration at which inhibition is half-maximal) was less than 100 nM.

`O=C(O)c1ccc2c(C3CCCCC3)c3n(c2c1)CCOc1cc(OCCN2CCOC2=O)ccc1-3` [Example 2-38, 12-cyclohexyl-3-[2-(2-oxooxazolidin-3-yl)ethoxy]-6,7-dihydro-5-oxa-7a-azadibenzo[a,e]azulene-9-carboxylic acid] showed an IC50 of less than 100 nM. The compound `O=C(O)c1ccc2c(C3CCCCC3)c3n(c2c1)CCOc1c(OCc2ccccc2)cccc1-3` [Example 2-39, 4-benzyloxy-12-cyclohexyl-6,7-dihydro-5-oxa-7a-azadibenzo[a,e]azulene-9-carboxylic acid] yielded a concentration for half-maximal inhibition (IC50) of less than 100 nM.

`CC(C)(C)OC(=O)N1CC[C@H](Oc2ccc3c(c2)OCCn2c-3c(C3CCCCC3)c3ccc(C(=O)O)cc32)C1` [Example 2-40, 3-[(S)-1-(tert-butoxycarbonyl)pyrrolidin-3-yloxy]-12-cyclohexyl-6,7-dihydro-5-oxa-7a-azadibenzo[a,e]azulene-9-carboxylic acid]: the IC50 was less than 100 nM. With `CC(C)(C)OC(=O)N[C@H](COc1ccc2c(c1)OCCn1c-2c(C2CCCCC2)c2ccc(C(=O)O)cc21)Cc1ccccc1` [Example 2-41, 3-((S)-2-tert-butoxycarbonylamino-3-phenylpropoxy)-12-cyclohexyl-6,7-dihydro-5-oxa-7a-azadibenzo[a,e]azulene-9-carboxylic acid] the figure was less than 100 nM; with `O=C(O)c1ccc2c(C3CCCCC3)c3n(c2c1)CCOc1cc(O[C@H]2CCNC2)ccc1-3` [Example 2-42, 12-cyclohexyl-3-((S)-pyrrolidin-3-yloxy)-6,7-dihydro-5-oxa-7a-azadibenzo[a,e]azulene-9-carboxylic acid monohydrochloride], less than 100 nM; with `CC(C)[C@@H](COc1ccc2c(c1)OCCn1c-2c(C2CCCCC2)c2ccc(C(=O)O)cc21)NC(=O)OC(C)(C)C` [Example 2-43, 3-((S)-2-tert-butoxycarbonylamino-3-methylbutoxy)-12-cyclohexyl-6,7-dihydro-5-oxa-7a-azadibenzo[a,e]azulene-9-carboxylic acid], less than 100 nM.

The compound `CS(=O)(=O)N1CCCC(Oc2ccc3c(c2)OCCn2c-3c(C3CCCCC3)c3ccc(C(=O)O)cc32)C1` (stereo not shown) [Example 2-44, 12-cyclohexyl-3-(1-methanesulfonylpiperidin-3-yloxy)-6,7-dihydro-5-oxa-7a-azadibenzo[a,e]azulene-9-carboxylic acid] displayed a 50% inhibitory concentration (IC50) of less than 100 nM. Consider `CN1CCCCC1COc1ccc2c(c1)OCCn1c-2c(C2CCCCC2)c2ccc(C(=O)O)cc21` (stereo not shown) [Example 2-45, 12-cyclohexyl-3-(1-methylpiperidin-2-ylmethoxy)-6,7-dihydro-5-oxa-7a-azadibenzo[a,e]azulene-9-carboxylic acid], for which the IC50 was less than 100 nM. With `O=C(O)c1ccc2c(C3CCCCC3)c3n(c2c1)CCOc1cc(OC2CCCNC2)ccc1-3` (stereo not shown) [Example 2-46, 12-cyclohexyl-3-(piperidin-3-yloxy)-6,7-dihydro-5-oxa-7a-azadibenzo[a,e]azulene-9-carboxylic acid monohydrochloride] the figure was less than 100 nM. Turning to `NC(=O)c1ccc2c(C3CCCCC3)c3n(c2c1)CCOc1cc(OCc2cc(N4CCCC4=O)ccc2N2CCOCC2)ccc1-3` [Example 2-47, 12-cyclohexyl-3-[2-(morpholin-4-yl)-5-(2-oxopyrrolidin-1-yl)benzyloxy]-6,7-dihydro-5-oxa-7a-azadibenzo[a,e]azulene-9-carboxamide monohydrochloride], the IC50 is less than 100 nM. For the compound `CS(=O)(=O)c1ccc(N2CCOCC2)c(COc2ccc3c(c2)OCCn2c-3c(C3CCCCC3)c3ccc(C(N)=O)cc32)c1` [Example 2-48, 12-cyclohexyl-3-[5-methanesulfonyl-2-(morpholin-4-yl)benzyloxy]-6,7-dihydro-5-oxa-7a-azadibenzo[a,e]azulene-9-carboxamide monohydrochloride], the IC50 was less than 100 nM. The value for `COC(=O)N[C@H](COc1ccc2c(c1)OCCn1c-2c(C2CCCCC2)c2ccc(C(=O)O)cc21)Cc1ccccc1` [Example 2-49, 12-cyclohexyl-3-((S)-2-methoxycarbonylamino-3-phenylpropoxy)-6,7-dihydro-5-oxa-7a-azadibenzo[a,e]azulene-9-carboxylic acid] was less than 100 nM.

`COC(=O)N1CC[C@H](Oc2ccc3c(c2)OCCn2c-3c(C3CCCCC3)c3ccc(C(=O)O)cc32)C1` [Example 2-50, 12-cyclohexyl-3-((S)-1-methoxycarbonylpyrrolidin-3-yloxy)-6,7-dihydro-5-oxa-7a-azadibenzo[a,e]azulene-9-carboxylic acid] returned a half-maximal inhibitory concentration (IC50) of less than 100 nM. Take `CC(C)[C@@H](COc1ccc2c(c1)OCCn1c-2c(C2CCCCC2)c2ccc(C(=O)O)cc21)NS(C)(=O)=O` [Example 2-51, 12-cyclohexyl-3-((S)-2-methanesulfonylamino-3-methylbutoxy)-6,7-dihydro-5-oxa-7a-azadibenzo[a,e]azulene-9-carboxylic acid]: the IC50 was less than 100 nM. Turning to `COC(=O)Nc1ccccc1Oc1ccc2c(c1)OCCn1c-2c(C2CCCCC2)c2ccc(C(=O)O)cc21` [Example 2-52, 12-cyclohexyl-3-[2-(methoxycarbonylamino)phenoxy]-6,7-dihydro-5-oxa-7a-azadibenzo[a,e]azulene-9-carboxylic acid], the IC50 is less than 100 nM. `O=C(O)c1ccc2c(C3CCCCC3)c3n(c2c1)CCOc1c(OCCN2CCCCC2)cccc1-3` [Example 2-53, 12-cyclohexyl-4-[2-(piperidin-1-yl)ethoxy]-6,7-dihydro-5-oxa-7a-azadibenzo[a,e]azulene-9-carboxylic acid hydrochloride] returned an IC50 of less than 100 nM. In the case of `O=C(O)c1ccc(NC(=O)C2(NC(=O)c3ccc4c(C5CCCCC5)c5n(c4c3)CCOc3ccccc3-5)CCC2)nc1` [Example 2-54, 6-({1-[(12-cyclohexyl-6,7-dihydro-5-oxa-7a-azadibenzo[a,e]azulene-9-carbonyl)amino]cyclobutanecarbonyl}amino)nicotinic acid], the IC50 was less than 100 nM. As for `O=C(O)CNC(=O)C1(NC(=O)c2ccc3c(C4CCCCC4)c4n(c3c2)CCOc2ccccc2-4)CCC1` [Example 2-55, ({1-[(12-cyclohexyl-6,7-dihydro-5-oxa-7a-azadibenzo[a,e]azulene-9-carbonyl)amino]cyclobutanecarbonyl}amino)acetic acid], the IC50 is less than 100 nM.

`O=C(NC1(C(=O)NC2(C(=O)O)CCC2)CCC1)c1ccc2c(C3CCCCC3)c3n(c2c1)CCOc1ccccc1-3` [Example 2-151, 1-({1-[(12-cyclohexyl-6,7-dihydro-5-oxa-7a-azadibenzo[a,e]azulene-9-carbonyl)amino]cyclobutanecarbonyl}amino)cyclobutanecarboxylic acid] displayed a concentration for half-maximal inhibition (IC50) of less than 100 nM. In turn, `COC(=O)c1ccc2nc(C3(NC(=O)c4ccc5c(C6CCCCC6)c6n(c5c4)CCOc4ccccc4-6)CCC3)[nH]c2c1` [Example 2-152, methyl 2-{1-[(12-cyclohexyl-6,7-dihydro-5-oxa-7a-azadibenzo[a,e]azulene-9-carbonyl)amino]cyclobutyl}-3H-benzimidazole-5-carboxylate] showed an IC50 of less than 100 nM. Compound `O=C(O)c1ccc(N[C@@H]2CCCC[C@H]2NC(=O)c2ccc3c(C4CCCCC4)c4n(c3c2)CCOc2ccccc2-4)cc1` [Example 2-153, 4-{(1R,2R)-2-[(12-cyclohexyl-6,7-dihydro-5-oxa-7a-azadibenzo[a,e]azulene-9-carbonyl)amino]cyclohexylamino}benzoic acid] yielded an IC50 of less than 100 nM. Compound `COCC(C)(NC(=O)c1ccc2c(C3CCCCC3)c3n(c2c1)CCOc1ccccc1-3)C(=O)O` (stereo not shown) [Example 2-154, 2-[(12-cyclohexyl-6,7-dihydro-5-oxa-7a-azadibenzo[a,e]azulene-9-carbonyl)amino]-3-methoxy-2-methylpropionic acid] had an IC50 of 100 to 1000 nM. Regarding `CC(C)(C)OC(=O)N1CCC(NC(=O)c2ccc3c(C4CCCCC4)c4n(c3c2)CCOc2ccccc2-4)(C(=O)Nc2ccc(/C=C/C(=O)O)cc2)CC1` [Example 2-155, tert-butyl 4-[4-((E)-2-carboxyvinyl)phenylcarbamoyl]-4-[(12-cyclohexyl-6,7-dihydro-5-oxa-7a-azadibenzo[a,e]azulene-9-carbonyl)amino]piperidine-1-carboxylate], the IC50 was less than 100 nM. The value for `CC(C)(COc1ccc(C(=O)O)cc1)NC(=O)c1ccc2c(C3CCCCC3)c3n(c2c1)CCOc1ccccc1-3` [Example 2-156, 4-{2-[(12-cyclohexyl-6,7-dihydro-5-oxa-7a-azadibenzo[a,e]azulene-9-carbonyl)amino]-2-methylpropoxy}benzoic acid] was less than 100 nM; that for `CC(C)(COc1ccc(C#N)cc1)NC(=O)c1ccc2c(C3CCCCC3)c3n(c2c1)CCOc1ccccc1-3` [Example 2-157, N-[2-(4-cyanophenoxy)-1,1-dimethylethyl]-12-cyclohexyl-6,7-dihydro-5-oxa-7a-azadibenzo[a,e]azulene-9-carboxamide] was 100 to 1000 nM. `CC(C)(CNc1ccc(C#N)cc1)NC(=O)c1ccc2c(C3CCCCC3)c3n(c2c1)CCOc1ccccc1-3` [Example 2-158, N-[2-(4-cyanophenylamino)-1,1-dimethylethyl]-12-cyclohexyl-6,7-dihydro-5-oxa-7a-azadibenzo[a,e]azulene-9-carboxamide] returned an IC50 of less than 100 nM. Take `O=C(O)c1ccc2nc(C3(NC(=O)c4ccc5c(C6CCCCC6)c6n(c5c4)CCOc4ccccc4-6)CCC3)[nH]c2c1` [Example 2-160, 2-{1-[(12-cyclohexyl-6,7-dihydro-5-oxa-7a-azadibenzo[a,e]azulene-9-carbonyl)amino]cyclobutyl}-3H-benzimidazole-5-carboxylic acid]: the IC50 is less than 100 nM.
